Measured values from patent US12077503B2, “Substituted cyclic amides and their use as herbicides” (FMC CORPORATION, priority 2015, dated 2024).

Columns and labels:
[1] = tested on: barnyardgrass (Echinochloa crus-galli); assay: Test C flooded paddy test; format: in vivo; conditions: Flood, 0 is no effect, 100 is complete control
Summary of the method: (§1)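 Test compounds were dosed straight into the flood water of pots holding 2-leaf-stage plants, with water kept 3 cm above the soil. Greenhouse plants were scored visually against controls after 13 to 15 d, from 0 (no effect) to 100 (complete control).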

[2] = tested on: sedge, umbrella (small-flower umbrella sedge, Cyperus difformis); assay: Test C flooded paddy test; format: in vivo; conditions: Flood, 0 is no effect, 100 is complete control
Summary of the method: as §1

CN1CC(c2cccc(OC(F)F)c2)C(C(=O)Nc2ccccc2F)C1=O (centres unmarked) [Compound 618]
Plant response rating (scale of 0 to 100), Barnyardgrass ([1]; 31 g ai/ha): 35
Plant response rating (scale of 0 to 100), Barnyardgrass ([1]; 62 g ai/ha): 50
Plant response rating (scale of 0 to 100), Barnyardgrass ([1]; 125 g ai/ha): 75
Plant response rating (scale of 0 to 100), Barnyardgrass ([1]; 250 g ai/ha): 80
Plant response rating (scale of 0 to 100), Sedge, Umbrella ([2]; 31 g ai/ha): 0
Plant response rating (scale of 0 to 100), Sedge, Umbrella ([2]; 62 g ai/ha): 0
Plant response rating (scale of 0 to 100), Sedge, Umbrella ([2]; 125 g ai/ha): 0
Plant response rating (scale of 0 to 100), Sedge, Umbrella ([2]; 250 g ai/ha): 0
